From the PolyMetriX glass transition set come the findings set out here.

For `*/C(C)=C(/*)[Si](C)(C)CC[Si](C)(C)C` (repeat unit), the glass transition temperature came out at 200.00 °C. As to `*C#Cc1cccc(C#C[SiH](*)c2ccccc2)c1` (repeat unit), the glass transition temperature is 85.00 °C. `*C/C=C/C[Si](*)(C)C` (repeat unit) came in with a glass transition temperature of -57.50 °C. Turning to `*C/C=C/C[Si](*)(C)CCCOc1ccc(-c2ccccc2)cc1` (repeat unit), the glass transition temperature stood at 10.00 °C.

Consider `*C/C=C/C[Si](*)(C=C)C=C` (repeat unit), for which the glass transition temperature was -65.00 °C. For `*C/C=C/C[Si](*)(CCCOc1ccccc1)c1ccccc1` (repeat unit), the glass transition temperature was -5.00 °C. `*C/C=C/C[Si](*)(c1ccccc1)c1ccccc1` (repeat unit) registered a glass transition temperature of 34.90 °C. As for `*C1CCC(CC2CCC(N3C(=O)c4ccc(-c5ccc6c(c5)C(=O)N(*)C6=O)cc4C3=O)C(C)C2)CC1C` (repeat unit), the figure is 260.00 °C; as for `*C1CCC(CC2CCC(N3C(=O)c4ccc(Oc5ccc6c(c5)C(=O)N(*)C6=O)cc4C3=O)C(C)C2)CC1C` (repeat unit), 250.00 °C. Take `*CC(*)c1ccc(C(C)=O)cc1` (repeat unit): the glass transition temperature was determined as 115.50 °C. Molecule `*CC(*)c1ccc(C(O)C(F)(F)F)cc1` (repeat unit) had a glass transition temperature of 110.00 °C. `*CC(*)c1ccc(C(O)CCN(C)C)cc1` (repeat unit) displayed a glass transition temperature of 43.00 °C. As for `*CC(*)c1ccc(C(O)CCN2CCCCC2)cc1` (repeat unit), the figure is 54.00 °C.

Take `*CC(*)c1ccc(CCC)cc1` (repeat unit): the glass transition temperature amounted to 46.8 °C.

For `*CC(*)c1ccc(CCCCCC)cc1` (repeat unit), the glass transition temperature is -27.00 °C. For `*CC(*)c1ccc(CCCCCCCC)cc1` (repeat unit) the value was -45.00 °C.

The molecule `*CC(*)c1ccc(CCCCCCCCC)cc1` (repeat unit) displayed a glass transition temperature of -53.00 °C. The molecule `*CC(*)c1ccc(CCl)cc1` (repeat unit) yielded a glass transition temperature of 113.50 °C.

As to `*CC(*)c1ccc(COCCC(F)(F)C(F)(F)C(F)(F)C(F)(F)F)cc1` (repeat unit), the glass transition temperature came to 13.00 °C. Take `*CC(*)c1ccc(COCCCC)cc1` (repeat unit): the glass transition temperature stood at 10.00 °C. Consider `*CC(*)c1ccc(COCCCCCC)cc1` (repeat unit), for which the glass transition temperature is -20.00 °C. For `*CC(*)c1ccc(COCCO)cc1` (repeat unit) the value was 46.00 °C; for `*CC(*)c1ccc(COCCOCCCC)cc1` (repeat unit), -38.00 °C. `*CC(*)c1ccc(COCCOCCCCCCCC)cc1` (repeat unit): the glass transition temperature was -42.00 °C.

`*CC(*)c1ccc(COc2ccc(-c3ccc(-c4ccc(-c5ccc(CCCCCC)s5)s4)c4nsnc34)cc2)cc1` (repeat unit): the glass transition temperature came to 122.00 °C. As for `*CC(*)c1ccc(C[Si](C)(C)C)cc1` (repeat unit), the figure is 82.00 °C; as for `*CC(*)c1ccc(Cl)c([N+](=O)[O-])c1` (repeat unit), 132.90 °C; as for `*CC(*)c1ccc(I)cc1` (repeat unit), 158.00 °C.

`*CC(*)c1ccc(OCC)cc1` (repeat unit) had a glass transition temperature of 86.00 °C. `*CC(*)c1ccc(OCCOCCOC(C)=O)cc1` (repeat unit) showed a glass transition temperature of -3.00 °C.

`*CC(*)c1ccc(Oc2ccccc2)cc1` (repeat unit) returned a glass transition temperature of 85.00 °C.

`*CC(*)c1ccc(S(=O)(=O)OCCC)cc1` (repeat unit) came in with a glass transition temperature of 217.00 °C. For the molecule `*CC(*)c1ccc([SiH](C)C)cc1` (repeat unit), the glass transition temperature came out at 105.00 °C.

`*CC(*)c1ccc2c(c1)OCO2` (repeat unit) had a glass transition temperature of 138.00 °C. The molecule `*CC(*)c1ccc2ccccc2c1` (repeat unit) had a glass transition temperature of 146.50 °C. For `*CC(*)c1cccc(C)n1` (repeat unit) the value was 92.00 °C; for `*CC(*)c1cccc(N(c2ccc(C)cc2)c2ccc(C)cc2)c1` (repeat unit), 126.50 °C; for `*CC(*)c1cccc(O)c1` (repeat unit), 169.00 °C. As for `*CC(*)c1cccc2ccccc12` (repeat unit), the figure is 160.00 °C; as for `*CC(*)c1ccccc1C(=O)N(C)C` (repeat unit), 190.00 °C. Consider `*CC(*)c1ccccc1C(=O)OCC(C)C` (repeat unit), for which the glass transition temperature was found to be 127.00 °C. As for `*CC(*)c1ccccc1C(=O)OCCCC` (repeat unit), the glass transition temperature turned out to be 66.00 °C.

`*CC(*)c1ccccc1C(=O)OCCCCCC` (repeat unit) showed a glass transition temperature of 45.00 °C.

`*CC(*)c1ccccc1COC(C)C` (repeat unit): the glass transition temperature was 88.00 °C. Turning to `*CC(*)c1ccccc1COCC` (repeat unit), the glass transition temperature was determined as 74.00 °C. With `*CC(*)n1c2ccccc2c2cc3ccccc3cc21` (repeat unit), the glass transition temperature is 253.00 °C. As for `*CC(*)n1cc2ccccc2n1` (repeat unit), the figure is 41.50 °C. As for `*CC(C)(C)C1C(=O)N(c2ccccc2)C(=O)C1*` (repeat unit), the figure is 188.00 °C; as for `*CC(C)(C)C1C(=O)OC(=O)C1*` (repeat unit), 141.00 °C. `*CC(C)(N=C=O)C1C(=O)OC(=O)C1*` (repeat unit) yielded a glass transition temperature of 100.00 °C. For `*CC(OC(C)C)C1C(=O)OC(=O)C1*` (repeat unit), the glass transition temperature is 142.00 °C.

As for `*CC(OCC(C)C)C1(C)C(=O)OC(=O)C1(*)C` (repeat unit), the glass transition temperature amounted to 219.00 °C.

In turn, `*CC(OCC(C)C)C1C(=O)OC(=O)C1*` (repeat unit) gave a glass transition temperature of 145.00 °C. For `*CC(OCC)C1C(=O)OC(=O)C1*` (repeat unit), the glass transition temperature is 146.00 °C. For `*CC(c1ccccc1)C1C(=O)N(C(C)(C)C)C(=O)C1*` (repeat unit) the value was 178.00 °C; for `*CC(c1ccccc1)C1C(=O)N(c2ccc(C(C)(C)C)cc2)C(=O)C1*` (repeat unit), 237.00 °C; for `*CC1(*)CCCCC1` (repeat unit), 100.00 °C. As for `*CC1(*)OCC(c2ccccc2)O1` (repeat unit), the figure is 75.00 °C.

For `*CC1CC2CC1C1CCC(Cn3c(=O)c4cc5c(=O)n(*)c(=O)c5cc4c3=O)C21` (repeat unit), the glass transition temperature worked out at 265.00 °C. `*CC1CCC(CNC(=O)c2cc(C(=O)N*)cc(C(C)(C)C)c2)CC1` (repeat unit) yielded a glass transition temperature of 236.00 °C. `*CCC(*)(C)C` (repeat unit) had a glass transition temperature of -12.00 °C. As for `*CCC(*)(C)c1ccccc1` (repeat unit), the figure is 93.00 °C; as for `*CCC(*)=O` (repeat unit), 15.00 °C; as for `*CCC(C)(C)C(*)(C)C` (repeat unit), 87.00 °C. On to `*CCC(C)C(*)(C)C(=O)OC` (repeat unit), for which the glass transition temperature is 45.00 °C. On to `*CCC(Cl)C(*)Cl` (repeat unit), for which the glass transition temperature amounted to 70.00 °C. On to `*CCC(F)(F)C(*)(F)F` (repeat unit), for which the glass transition temperature is -108.00 °C. `*CCCCCCCCCCCCCCCCOC(=O)CC/C=C/CCC(=O)O*` (repeat unit): the glass transition temperature was -18.00 °C. `*CCCCCCCCNC(=O)CCP(C)(=O)CCC(=O)N*` (repeat unit) had a glass transition temperature of 52.00 °C. For `*CCCCCCCNC(=O)C(OC)C(OC)C(=O)N*` (repeat unit) the value was 87.00 °C; for `*CCCCCCNC(=O)c1cc(NC(=O)C(C(C)CC)N2C(=O)c3ccccc3C2=O)cc(C(=O)N*)c1` (repeat unit), 135.00 °C. As for `*CCCCCCOC(=O)CCC(=O)O*` (repeat unit), the figure is -50.00 °C; as for `*CCCCNC(=O)C(OC)C(OC)C(=O)N*` (repeat unit), 100.00 °C. For the molecule `*CCOCCOC(=O)CCC(=O)O*` (repeat unit), the glass transition temperature was -38.20 °C.

Turning to `*Cc1ccc(CNC(=O)c2cc(C(=O)N*)cc(C(C)(C)C)c2)cc1` (repeat unit), the glass transition temperature was determined as 204.00 °C. As for `*NC1CC(C)(C)CC(C)(CNC(=O)c2cc(NC(=O)C(C(C)CC)N3C(=O)c4ccccc4C3=O)cc(C(*)=O)c2)C1` (repeat unit), the figure is 128.00 °C; as for `*O[Si](C)(C)O[Si](C)(C)OC(C)CCC(*)C` (repeat unit), -83.00 °C; as for `*O[Si](C)(CCC(F)(F)F)CCC(F)(F)C(F)(F)C(F)(F)C(F)(F)C(F)(F)C(F)(F)C(F)(F)C(F)(F)CC[Si](*)(C)CCC(F)(F)F` (repeat unit), -28.00 °C. The molecule `*O[Si](C)(CCC(F)(F)F)CCC(F)(F)CC[Si](*)(C)CCC(F)(F)F` (repeat unit) yielded a glass transition temperature of -38.00 °C. As for `*O[Si](C)(CCC(F)(F)F)O[Si](C)(CCC(F)(F)F)O[Si](C)(CCC(F)(F)F)CCC(F)(F)C(F)(F)C(F)(F)C(F)(F)C(F)(F)C(F)(F)CC[Si](*)(C)CCC(F)(F)F` (repeat unit), the glass transition temperature was -43.00 °C. For the molecule `*Oc1ccc(C(C)(C)c2ccc(OC(=O)CC(C)CCC(*)=O)cc2)cc1` (repeat unit), the glass transition temperature is 56.00 °C.

As to `*Oc1ccc(Oc2ccc(OC(=O)NC(=O)c3cc(C(=O)NC(*)=O)cc(C(C)(C)C)c3)cc2)cc1` (repeat unit), the glass transition temperature was 114.50 °C. Molecule `*Oc1cccc(OC(=O)CCC(*)=O)c1` (repeat unit) had a glass transition temperature of 38.20 °C.
